Laboratory results: PubChem BioAssay (NCI)
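Each compound was tested at five concentrations against cells in 96-well plates for 48 hours. At the GI50, growth is halved. TGI: total growth inhibition.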

Experiments:
Assay in all cases: DTP human tumour cell line panel, 48 h
[1] = tested on: MDA-MB-231 breast
[2] = tested on: EKVX NSCLC
[3] = tested on: SK-MEL-28 melanoma
[4] = tested on: HS 578T breast
[5] = tested on: RPMI-8226 leukemia
[6] = tested on: MCF7 breast
[7] = tested on: A498 renal
[8] = tested on: SK-MEL-5 melanoma
[9] = tested on: CAKI-1 renal
[10] = tested on: NCI-H226 lung
[11] = tested on: OVCAR-8 ovarian
[12] = tested on: MALME-3M melanoma
[13] = tested on: LOX IMVI melanoma
[14] = tested on: SN12C renal
[15] = tested on: BT-549 breast
[16] = tested on: SR leukemia
[17] = tested on: TK-10 renal
[18] = tested on: ACHN renal
[19] = tested on: SF-539 CNS
[20] = tested on: DU-145 prostate
[21] = tested on: SK-MEL-2 melanoma
[22] = tested on: HT29 colon
[23] = tested on: UACC-257 melanoma
[24] = tested on: SK-OV-3 ovarian
[25] = tested on: NCI-H23 lung
[26] = tested on: UACC-62 melanoma
[27] = tested on: SF-295 CNS
[28] = tested on: RXF 393 renal
[29] = tested on: MDA-MB-435
[30] = tested on: SF-268 CNS
[31] = tested on: K-562 leukemia
[32] = tested on: M14 melanoma
[33] = tested on: MOLT-4 leukemia
[34] = tested on: OVCAR-4 ovarian
[35] = tested on: MDA-MB-468 breast
[36] = tested on: UO-31 renal
[37] = tested on: A549 NSCLC
[38] = tested on: PC-3 prostate
[39] = tested on: OVCAR-5 ovarian
[40] = tested on: 786-0 renal
[41] = tested on: KM12 colon
[42] = tested on: SNB-19 CNS
[43] = tested on: HCC-2998 colon
[44] = tested on: HCT-15 colon
[45] = tested on: CCRF-CEM leukemia
[46] = tested on: IGROV1 ovarian
[47] = tested on: SW-620 colon
[48] = tested on: COLO 205 colon
[49] = tested on: NCI-H460 lung
[50] = tested on: OVCAR-3 ovarian
[51] = tested on: HOP-62 NSCLC
[52] = tested on: HCT-116 colon
[53] = tested on: U251 CNS
[54] = tested on: NCI-H522 lung
[55] = tested on: SNB-75 CNS
[56] = tested on: HOP-92 NSCLC
[57] = tested on: HL-60(TB) leukemia
[58] = tested on: T-47D breast

COc1ccc2[nH]cc(-c3cc4nc(-c5cn(C)c6ncc(Br)cc56)cc(N)n4n3)c2c1
GI50 [1]: 1.65 µM
TGI [1]: 3.36 µM
GI50 [2]: 1.66 µM
TGI [2]: 3.84 µM
GI50 [3]: 1.67 µM
TGI [3]: 3.08 µM
GI50 [4]: 1800 nM
TGI [4]: 4.58 µM
GI50 [5]: 2910 nM
TGI [5]: > 100 µM
GI50 [6]: 1670 nM
TGI [6]: 3.05 µM
GI50 [7]: 2.22 µM
TGI [7]: 7.01 µM
GI50 [8]: 1780 nM
TGI [8]: 3.34 µM
GI50 [9]: 1410 nM
TGI [9]: 3.54 µM
GI50 [10]: 1.95 µM
TGI [10]: 3.97 µM
GI50 [11]: 1.86 µM
TGI [11]: 3.66 µM
GI50 [12]: 1680 nM
TGI [12]: 3.17 µM
GI50 [13]: 1650 nM
TGI [13]: 3.11 µM
GI50 [14]: 1.7 µM
TGI [14]: 3.3 µM
GI50 [15]: 2140 nM
TGI [15]: 4.67 µM
GI50 [16]: 2740 nM
TGI [16]: > 100 µM
GI50 [17]: 2.48 µM
TGI [17]: 6.39 µM
GI50 [18]: 1460 nM
TGI [18]: 3.35 µM
GI50 [19]: 1640 nM
TGI [19]: 3.03 µM
GI50 [20]: 1.78 µM
TGI [20]: 3.64 µM
GI50 [21]: 1680 nM
TGI [21]: 3.25 µM
GI50 [22]: 1.96 µM
TGI [22]: 3.95 µM
GI50 [23]: 1.72 µM
TGI [23]: 3.48 µM
GI50 [24]: 2.38 µM
TGI [24]: 5.64 µM
GI50 [25]: 1760 nM
TGI [25]: 3.51 µM
GI50 [26]: 1550 nM
TGI [26]: 3.04 µM
GI50 [27]: 1.57 µM
TGI [27]: 3.07 µM
GI50 [28]: 1.73 µM
TGI [28]: 3.23 µM
GI50 [29]: 1680 nM
TGI [29]: 3.21 µM
GI50 [30]: 1840 nM
TGI [30]: 4.33 µM
GI50 [31]: 2590 nM
TGI [31]: > 100 µM
GI50 [32]: 1830 nM
TGI [32]: 3.55 µM
GI50 [33]: 2240 nM
TGI [33]: > 100 µM
GI50 [34]: 1840 nM
TGI [34]: 3.79 µM
GI50 [35]: 1420 nM
TGI [35]: 2.86 µM
GI50 [36]: 1730 nM
TGI [36]: 4.16 µM
GI50 [37]: 1.77 µM
TGI [37]: 5.07 µM
GI50 [38]: 2.54 µM
TGI [38]: 10.3 µM
GI50 [39]: 1.59 µM
TGI [39]: 3.44 µM
GI50 [40]: 1770 nM
TGI [40]: 3.29 µM
GI50 [41]: 1990 nM
TGI [41]: 4.42 µM
GI50 [42]: 2.45 µM
TGI [42]: 6.63 µM
GI50 [43]: 1.74 µM
TGI [43]: 3.17 µM
GI50 [44]: 1350 nM
TGI [44]: 2.81 µM
GI50 [45]: 2850 nM
TGI [45]: > 100 µM
GI50 [46]: 1650 nM
TGI [46]: 3.43 µM
GI50 [47]: 1750 nM
TGI [47]: 3.35 µM
GI50 [48]: 1.82 µM
TGI [48]: 3.45 µM
GI50 [49]: 1800 nM
TGI [49]: 3.47 µM
GI50 [50]: 1810 nM
TGI [50]: 3.49 µM
GI50 [51]: 2.07 µM
TGI [51]: 5.49 µM
GI50 [52]: 1810 nM
TGI [52]: 3.3 µM

O=C1Nc2cc(Cl)ccc2/C1=C/c1cccc(OCc2ccccc2)c1
GI50 [1]: 4.76 µM
TGI [1]: 18.6 µM
GI50 [2]: 5.35 µM
TGI [2]: 23.7 µM
GI50 [3]: 5.3 µM
TGI [3]: 17.9 µM
GI50 [4]: 3460 nM
TGI [4]: 22.8 µM
GI50 [53]: 3.5 µM
TGI [53]: 13.7 µM
GI50 [5]: 2130 nM
TGI [5]: 11.7 µM
GI50 [6]: 1670 nM
TGI [6]: 12.9 µM
GI50 [7]: 13.7 µM
TGI [7]: 27.9 µM
GI50 [8]: 3170 nM
TGI [8]: 11.4 µM
GI50 [9]: 2770 nM
TGI [9]: 16.4 µM
GI50 [10]: 6.43 µM
TGI [10]: 22.2 µM
GI50 [11]: 6.86 µM
TGI [11]: 25.3 µM
GI50 [12]: 4300 nM
TGI [12]: 16.7 µM
GI50 [13]: 2750 nM
TGI [13]: 11.4 µM
GI50 [14]: 6.93 µM
TGI [14]: 20.3 µM
GI50 [15]: 2440 nM
TGI [15]: 11.2 µM
GI50 [16]: 2100 nM
TGI [16]: 5.86 µM
GI50 [17]: 16.2 µM
TGI [17]: 35.9 µM
GI50 [18]: 3970 nM
TGI [18]: 16.1 µM
GI50 [54]: 2930 nM
TGI [54]: 12.2 µM
GI50 [19]: 2270 nM
TGI [19]: 5.49 µM
GI50 [20]: 10.9 µM
TGI [20]: 42.1 µM
GI50 [21]: 3680 nM
TGI [21]: 15 µM
GI50 [22]: 5.92 µM
TGI [22]: 20.3 µM
GI50 [23]: 6.18 µM
TGI [23]: 21.2 µM
GI50 [55]: 3.23 µM
TGI [55]: 21.2 µM
GI50 [56]: 1330 nM
TGI [56]: 9.75 µM
GI50 [24]: 13.1 µM
TGI [24]: 31.6 µM
GI50 [25]: 4230 nM
TGI [25]: 21.5 µM
GI50 [26]: 2410 nM
TGI [26]: 10.1 µM
GI50 [27]: 5.18 µM
TGI [27]: 21 µM
GI50 [28]: 10.8 µM
TGI [28]: 24.4 µM
GI50 [29]: 2040 nM
TGI [29]: 4.45 µM
GI50 [30]: 3260 nM
TGI [30]: 15.1 µM
GI50 [31]: 2130 nM
TGI [31]: 10.2 µM
GI50 [32]: 3190 nM
TGI [32]: 15.5 µM
GI50 [33]: 2690 nM
TGI [33]: 10.9 µM
GI50 [34]: 3700 nM
TGI [34]: 19.1 µM
GI50 [35]: 2430 nM
TGI [35]: 14.1 µM
GI50 [36]: 2450 nM
TGI [36]: 18.6 µM
GI50 [37]: 10 µM
TGI [37]: 24.9 µM
GI50 [38]: 4.67 µM
TGI [38]: 20.5 µM
GI50 [39]: 11.8 µM
TGI [39]: 24.4 µM
GI50 [40]: 3120 nM
TGI [40]: 15.9 µM
GI50 [57]: 2230 nM
TGI [57]: 6.49 µM
GI50 [41]: 3690 nM
TGI [41]: 14.1 µM
GI50 [42]: 10.2 µM
TGI [42]: 25.7 µM
GI50 [43]: 11.9 µM
TGI [43]: 25.3 µM
GI50 [44]: 2580 nM
TGI [44]: 13.3 µM
GI50 [45]: 2860 nM
TGI [45]: 13.1 µM
GI50 [46]: 3430 nM
TGI [46]: 18.3 µM
GI50 [47]: 3590 nM
TGI [47]: 14.5 µM
GI50 [48]: 13.8 µM
TGI [48]: 30.2 µM
GI50 [49]: 3240 nM
TGI [49]: 11.5 µM
GI50 [58]: 4.73 µM
TGI [58]: 30 µM
GI50 [50]: 2890 nM
TGI [50]: 9.48 µM
GI50 [51]: 9.61 µM
TGI [51]: 29.1 µM
GI50 [52]: 2430 nM
TGI [52]: 12.7 µM
